Measurements as given in PubChem BioAssay AID2060904 (Molecular Pharmacology Branch, DTP, NCI, 2025).
Where “and” joins values, the source holds several entries; their conditions need not be identical. Equal entries are not always repeated.

Test system: 349418-098-R-PDC complex spheroid viability
Assay: Anticancer human tumor 349418-098-R-PDC patient-derived lung adenocarcinoma cell line growth inhibition [RAS]
Settings: for viability, T/C: stronger effect = lower value
Procedure, shortened: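 Tumour cells grown as complex spheroids with HUVEC endothelial cells and mesenchymal stem cells, treated with RAS pathway inhibitor combinations. Each agent spans half-log steps from near clinical Cmax, or 10 microM where Cmax is unknown.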

[1] = curve of first compound, second compound 0.0316 µM
[2] = curve of first compound, second compound 0.1 µM
[3] = curve of first compound, second compound 0.316 µM
[4] = curve of first compound, second compound 1 µM
[5] = second compound 0.0316 µM, first compound 0.00316 µM
[6] = second compound 0.0316 µM, first compound 0.01 µM
[7] = second compound 0.0316 µM, first compound 0.0316 µM
[8] = second compound 0.0316 µM, first compound 0.1 µM
[9] = second compound 0.0316 µM, first compound 0.316 µM
[10] = second compound 0.0316 µM, first compound 1 µM
[11] = second compound 0.1 µM, first compound 0.00316 µM
[12] = second compound 0.1 µM, first compound 0.01 µM
[13] = second compound 0.1 µM, first compound 0.0316 µM
[14] = second compound 0.1 µM, first compound 0.1 µM
[15] = second compound 0.1 µM, first compound 0.316 µM
[16] = second compound 0.1 µM, first compound 1 µM
[17] = second compound 0.316 µM, first compound 0.00316 µM
[18] = second compound 0.316 µM, first compound 0.01 µM
[19] = second compound 0.316 µM, first compound 0.0316 µM
[20] = second compound 0.316 µM, first compound 0.1 µM
[21] = second compound 0.316 µM, first compound 0.316 µM
[22] = second compound 0.316 µM, first compound 1 µM
[23] = second compound 1 µM, first compound 0.00316 µM
[24] = second compound 1 µM, first compound 0.01 µM
[25] = second compound 1 µM, first compound 0.0316 µM
[26] = second compound 1 µM, first compound 0.1 µM
[27] = second compound 1 µM, first compound 0.316 µM
[28] = second compound 1 µM, first compound 1 µM
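Note: spheroids exposed to compound for seven days before viability readout.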

Molecule `O=C(c1ccc(F)c(F)c1Nc1ccc(I)cc1F)N1CC(O)([C@@H]2CCCCN2)C1` + C#Cc1c(F)ccc2cc(O)cc(-c3ncc4c(N5CC6CCC(C5)N6)nc(OCC56CCCN5CC(F)C6)nc4c3F)c12 has an IC50 [1] of less than 3.16 nM, an IC50 [2] of less than 3.16 nM and an IC50 [3] of less than 3.16 nM. It also gave an IC50 [4] of less than 3.16 nM, an IC50 (curve of first compound, second compound 3.16 µM) of less than 3.16 nM and an IC50 (curve of first compound, second compound 10 µM) of less than 3.16 nM. It also gave a viability, T/C [5] of 47.9%, a viability, T/C [6] of 37.5% and a viability, T/C [7] of 36.9%. For the same molecule, the viability, T/C [8] was 15.6%, the viability, T/C [9] was 7.05% and the viability, T/C [10] was 5.82%. The viability, T/C [11] was 44.8%, the viability, T/C [12] was 39.8% and the viability, T/C [13] was 29.3%. It also gave a viability, T/C [14] of 14.2%, a viability, T/C [15] of 7.41% and a viability, T/C [16] of 4.83%. For the same molecule, the viability, T/C [17] was 46%, the viability, T/C [18] was 32.6% and the viability, T/C [19] was 24.1%. It also gave a viability, T/C [20] of 13.3%, a viability, T/C [21] of 5.32% and a viability, T/C [22] of 5.62%. The viability, T/C [23] was 38.6%, the viability, T/C [24] was 31.1% and the viability, T/C [25] was 21.9%. The viability, T/C [26] was 10.9%, the viability, T/C [27] was 5.57% and the viability, T/C [28] was 4.89%. The viability, T/C (second compound 3.16 µM, first compound 0.00316 µM) was 36.8%, the viability, T/C (second compound 3.16 µM, first compound 0.01 µM) was 22.8% and the viability, T/C (second compound 3.16 µM, first compound 0.0316 µM) was 16%. For the same molecule, the viability, T/C (second compound 3.16 µM, first compound 0.1 µM) was 8.92%, the viability, T/C (second compound 3.16 µM, first compound 0.316 µM) was 6.05% and the viability, T/C (second compound 3.16 µM, first compound 1 µM) was 4.36%. It also gave a viability, T/C (second compound 10 µM, first compound 0.00316 µM) of 16.8%, a viability, T/C (second compound 10 µM, first compound 0.01 µM) of 7.65% and a viability, T/C (second compound 10 µM, first compound 0.0316 µM) of 3.23%. For the same molecule, the viability, T/C (second compound 10 µM, first compound 0.1 µM) was 4.71%, the viability, T/C (second compound 10 µM, first compound 0.316 µM) was 2.14% and the viability, T/C (second compound 10 µM, first compound 1 µM) was 0.87%.
With `CCn1c(-c2cc(N3CCN(C)CC3)cnc2C(C)OC)c2c3cc(ccc31)-c1csc(n1)CC(NC(=O)C1CC1C)C(=O)N1CCCC(N1)C(=O)OCC(C)(C)C2` (stereo unspecified) the viability, T/C (compound 0.000949 µM) was 108% [middle of 8 runs], the viability, T/C (compound 0.003 µM) was 103% [middle of 8 runs] and the viability, T/C (compound 0.03 µM) was 105% [middle of 8 runs]. For the same molecule, the viability, T/C (compound 0.0949 µM) was 111% [middle of 8 runs] and the IC50 (compound alone, run of 05/20/2024) was greater than 300 nM.
`CC(C)n1nc(-c2ccc3oc(N)nc3c2)c2c(N)ncnc21` was tested, and the viability, T/C (compound 0.00316 µM) was 44.1% (2×) and 55.6% and 55.3%, the viability, T/C (compound 0.01 µM) was 17% [middle of 4 runs] and the viability, T/C (compound 0.0316 µM) was 8.74% [middle of 4 runs]. For the same molecule, the viability, T/C (compound 0.1 µM) was 7.93% [middle of 4 runs] and the IC50 (curve of compound) was 3.6 nM [middle of 4 runs].
For `C=CC(=O)N1CCN(c2nc(OCC3CCCN3C)nc3c(F)c(-c4nc(N)cc(C)c4C(F)(F)F)c(Cl)cc23)C(C)C1` (stereo unspecified), the viability, T/C (compound 0.1 µM) was 102% [middle of 12 runs], the viability, T/C (compound 0.316 µM) was 95.8% [middle of 12 runs] and the viability, T/C (compound 1 µM) was 85.1% [middle of 12 runs]. The IC50 (compound alone, run of 06/10/2024) was greater than 1000 nM and the IC50 (curve of compound) was greater than 1000 nM.
For `CC1(C)CCC(Nc2ncc(C(F)(F)F)c(-c3c[nH]c4c(P(C)(C)=O)c(C#N)ccc34)n2)CN1` (stereo unspecified), the viability, T/C (compound 0.000949 µM) was 65.3% [middle of 4 runs], the viability, T/C (compound 0.003 µM) was 24.7% [middle of 4 runs] and the viability, T/C (compound 0.00949 µM) was 15.5% [middle of 4 runs]. For the same molecule, the viability, T/C (compound 0.03 µM) was 9.86% [middle of 4 runs], the viability, T/C (compound 0.0949 µM) was 8.72% [middle of 4 runs] and the viability, T/C (compound 0.3 µM) was 8.1% [middle of 4 runs]. The IC50 (curve of compound) was 1.47 nM and < 0.949 nM and 1.51 nM.
`CCN1CCN(Cc2ccc(Nc3ncc(F)c(-c4cc(F)c5nc(C)n(C(C)C)c5c4)n3)nc2)CC1` + C=CC(=O)N1CCN(c2nc(OCC3CCCN3C)nc3c(F)c(-c4nc(N)cc(C)c4C(F)(F)F)c(Cl)cc23)C(C)C1 showed an IC50 (curve of first compound, second compound 0.00316 µM) of 17.3 nM, an IC50 (curve of first compound, second compound 0.01 µM) of 23.4 nM and an IC50 [1] of 30.2 nM. The IC50 [2] was 11.3 nM, the IC50 [3] was 20.8 nM and the IC50 [4] was 14.1 nM. The viability, T/C (second compound 0.00316 µM, first compound 0.00316 µM) was 77.6%, the viability, T/C (second compound 0.00316 µM, first compound 0.01 µM) was 62.2% and the viability, T/C (second compound 0.00316 µM, first compound 0.0316 µM) was 35.9%. For the same molecule, the viability, T/C (second compound 0.00316 µM, first compound 0.1 µM) was 25.7%, the viability, T/C (second compound 0.00316 µM, first compound 0.316 µM) was 20.9% and the viability, T/C (second compound 0.00316 µM, first compound 1 µM) was 15.7%. It also gave a viability, T/C (second compound 0.01 µM, first compound 0.00316 µM) of 89.4%, a viability, T/C (second compound 0.01 µM, first compound 0.01 µM) of 71.3% and a viability, T/C (second compound 0.01 µM, first compound 0.0316 µM) of 43.4%. For the same molecule, the viability, T/C (second compound 0.01 µM, first compound 0.1 µM) was 22.1%, the viability, T/C (second compound 0.01 µM, first compound 0.316 µM) was 22.5% and the viability, T/C (second compound 0.01 µM, first compound 1 µM) was 17%. For the same molecule, the viability, T/C [5] was 78.8%, the viability, T/C [6] was 96.2% and the viability, T/C [7] was 48.4%. The viability, T/C [8] was 22.5%, the viability, T/C [9] was 21.6% and the viability, T/C [10] was 17.5%. For the same molecule, the viability, T/C [11] was 72.8%, the viability, T/C [12] was 51.2% and the viability, T/C [13] was 35.6%. It also gave a viability, T/C [14] of 20.6%, a viability, T/C [15] of 20.8% and a viability, T/C [16] of 17.4%. For the same molecule, the viability, T/C [17] was 82.8%, the viability, T/C [18] was 74% and the viability, T/C [19] was 35.2%. It also gave a viability, T/C [20] of 34.3%, a viability, T/C [21] of 25.2% and a viability, T/C [22] of 18.1%. The viability, T/C [23] was 61.5%, the viability, T/C [24] was 49.1% and the viability, T/C [25] was 46.7%. It also gave a viability, T/C [26] of 29%, a viability, T/C [27] of 22.1% and a viability, T/C [28] of 19.1%.
